Source: publication PMC10218704, “A Novel Blood–Brain Barrier-Penetrating and Vascular-Targeting Chimeric Peptide Inhibits Glioma Angiogenesis” (International Journal of Molecular Sciences, 2023)

Experiments:
[1] = test system: zebrafish embryo intersegmental vessel; experiment: Zebrafish embryo intersegmental vessel angiogenesis; type: in vivo; conditions: 25 µmol/L; 24 h; 28 °C; fluorescence microscope; vs control; n = 3
Description: After a certain period, healthy, sexually mature female and male zebrafish were mated in a 1:1 ratio. After 24 h, the fertilized eggs were removed, disinfected, and washed, and then placed in embryo culture water and cultured in an incubator at 28 °C for 24 h. The fertilized eggs were washed with chain enzyme protease E solution (1 mg/mL) to remove the egg membrane on the surface and placed under a microscope to observe and select the normally developing zebrafish embryos, and then placed into a 24-well plate. […] The control group was added with the same volume of embryo culture water, and then placed in an incubator at 28 °C for 24 h. Zebrafish embryos were randomly removed from each group and observed under a fluorescence microscope. The total length of zebrafish internode vessels was calculated and counted.

NRP-1 [2] = conditions: peptide 1000 nmol/L; VEGF-A165 0.5-8 nmol/L; CM5 chip; HBS-EP
Description: The SPR assay was performed using the Biacore S200 instrument (GE Healthcare, Uppsala, Sweden). Firstly, the CM5 sensor chip was activated with EDC/NHS. Then, the recombinant VEGFR-2 and NRP-1 proteins were immobilized on the surface of the sensor chip according to the operating instructions of amine coupling. VEGF-A165 was diluted to 8, 4, 2, 1, and 0.5 nmol/L in different concentrations of peptide solution dissolved by HBS-EP buffer (0, 0.016, 0.064, 0.256, and 1 μmol/L, respectively). The Kinetics/Affinity program was selected, and the automatic continuous injection program was set. The injection flow rate was 30 μL/min, the injection time was 120 s, and the dissociation time was 220 s. At the same time, zero-concentration injection wells and 0.5 nmol/L repeat-concentration injection wells of VEGF-A165 were set. At the end of each injection, the channels were flushed with glycine-HCl solution for 30 s until response values were returned to baseline.

VEGFR-2 = type: binding, human; conditions: peptide 256 and 1000 nmol/L; VEGF-A165 0.5-8 nmol/L; CM5 chip; HBS-EP
Description: To determine the effect of TAT-AT7 in competition with VEGF-A165 binding to VEGFR-2 or NRP-1, the SPR assay was conducted. The whole operation was conducted on a Biacore S200 instrument. The recombinant VEGFR-2 or NRP-1 proteins were firstly immobilized on a CM5 chip by an amine-coupling reaction. VEGF-A165 ligands with gradient concentrations in the absence or presence of different peptides were then flowed over the CM5 chip. The binding of VEGF-A165 ligands to the immobilized recombinant VEGFR-2 or NRP-1 proteins led to an increase of the refractive index on the surface of the chip, which could be converted into the fluctuation of electrical signals in the response (RU). As the concentration of VEGF-A165 was higher, the response value was also higher. However, with the addition of different peptides, the response value decreased to different degrees (Figure 3A and Figure 4A).
(TAT), ATWLPPR (AT7), and […] (TAT-AT7) were synthesized from China Peptides Co., Ltd. (Shanghai, China). The Hoechst 33,258 staining kit, Annexin V-FITC/PI apoptosis detection kit, and BCA protein assay kit were obtained from Beyotime Biotechnology (Nantong, China). The total protein extraction kit was from BestBio (Shanghai, China). The CM5 sensor chip was obtained from GE Healthcare Life Sciences (Uppsala, Sweden). Purified recombinant human VEGFR-2 and NRP-1 receptor proteins were purchased from R&D Systems (Minneapolis, MN, USA). Recombinant human endothelial growth factor-A165 (VEGF-A165) was obtained from PeproTech (Rocky Hill, NJ, USA). Anti-ERK1/2, anti-p-ERK1/2, anti-p-VEGFR-2, anti-AKT, anti-p-AKT, anti-p-SRC, anti-p-FAK, anti-p38 MAPK, anti-p-p38 MAPK, anti-p-PLC-γ, and anti-GAPDH antibodies were purchased from Cell Signaling Technology (Danvers, MA, USA). Anti-VEGFR-2, anti-FAK, and anti-SRC were purchased from Proteintech Group, Inc (Wuhan, China). F-12K medium, heparin, and endothelial cell growth supplement (ECGS) were from Macgene (Beijing, China). DMEM medium and fetal bovine serum (FBS) were obtained from Gibco®, Life Technologies (Carlsbad, CA, USA). […]

HUVECs = experiment: Annexin V-FITC/PI staining, flow cytometry (apoptosis); type: cell-based, human; conditions: 320 μmol/L, 24 h
Description: HUVECs were seeded into 6-well culture plates (3 × 10^5 cells/well). […] After discarding the supernatant and washing with cold PBS, the cells were fixed in 4% paraformaldehyde and stained with Hoechst 33,258 for 10 min. Then, the cells were washed with cold PBS and observed using an inverted fluorescence microscope. HUVECs were treated with different peptides (the methods were the same as the Hoechst staining). After 24 h, cells were collected by trypsin digestion and washed with PBS. Annexin V-FITC/PI staining was conducted according to the manufacturer’s instructions for the Apoptosis Detection Kit. Briefly, 195 μL of Annexin V-FITC/PI dilution buffer was added to resuspend the cells. Then, 5 μL of Annexin V-FITC and 10 μL of PI staining solutions were added and gently mixed with the cells. After incubation at room temperature in the dark for 10 min, the apoptotic cells were detected by flow cytometry.

[3] = test system: intracranial U87-mCherry-luc glioma; experiment: In vivo anti-glioma study (bioluminescence); set-up: species or system nude mice; conditions: 20 mg/kg/day i.v. (tail vein), 11 days; days 4, 7, 11, 14; n = 5
Description: The orthotopic U87-mCherry-luc glioma-bearing nude mice were randomly assigned to 6 groups (n = 5) according to the bioluminescence intensity of glioma measured on day 4. […] The bioluminescence intensity was measured on days 4, 7, 11, and 14, respectively. Nude mice were weighed daily. On day 15, the mice were sacrificed, and the glioma-bearing brains were harvested. The brain tissues were fixed with 4.0% paraformaldehyde, embedded in paraffin, and cut into slices. The TUNEL staining and CD31 immunohistochemical staining were conducted according to standard histological procedures.

red blood cells = experiment: Hemolysis assay; conditions: 2.5–640 μmol/L; 37 °C, 1 h; 540 nm; mouse red blood cells; n = 3
Description: The fresh blood of mice was centrifuged at 2000 r/min for 10 min, and the upper layer of serum was discarded, then mixed with normal saline and centrifuged at 2000 r/min for 10 min, repeated three times, and the supernatant was removed to obtain the lower layer of red blood cells. Then, 1 mL of red blood cells was diluted to 50 mL with normal saline. […] The samples were incubated at 37 °C for 1 h, centrifuged at 2000 r/min for 10 min, and photographed. Light absorption of samples was measured at 540 nm on a microplate reader.
Cell hemolysis rate (%) = (OD experimental group − negative control group)/(OD positive control group − negative control group) × 100%.

NRP-1 [4] = test system: NRP-1; set-up: method as in 2 sources, ref 21 = [21]; PMID 17983687; doi:10.1016/j.peptides.2007.09.013; 21. Starzec A. Ladam P. Vassy R. Badache S. Bouchemal N. Navaza A. du Penhoat C.H. Perret G.Y. Structure-function analysis of the antiangiogenic ATWLPPR peptide inhibiting VEGF (165) binding to neurop ||| ref 36 = [36]; PMID 11327725; doi:10.1006/bbrc.2001.4790; 36. Jia H. Lohr M. Jezequel S. Davis D. Shaikh S. Selwood D. Zachary I. Cysteine-rich and basic domain HIV-1 Tat peptides inhibit angiogenesis and induce endothelial cell apoptosis Biochem. Biophys. R; conditions: cited from earlier work

In the case of `N=C(N)NCCC[C@H](NC(=O)[C@H](CCCNC(=N)N)NC(=O)[C@H](CCCNC(=N)N)NC(=O)[C@H](CCC(N)=O)NC(=O)[C@H](CCCNC(=N)N)NC(=O)[C@H](CCCNC(=N)N)NC(=O)[C@H](CCCCN)NC(=O)[C@H](CCCCN)NC(=O)[C@@H](N)CCCNC(=N)N)C(=O)O` [TAT, reference compound], the intersegmental vascular growth [1] is reported as “no obvious effect on intersegmental vascular growth”, the “inhibition of binding of VEGF-A165 and NRP-1” value (NRP-1 [2]) is reported as “displayed inhibitory effects on the binding of VEGF-A165 and NRP-1, but it did not completely inhibit the binding” and the “effect on VEGF-A165 and VEGFR-2 binding (RU)” value (VEGFR-2) is reported as “less inhibitory effects on VEGF-A165 and VEGFR-2 binding than TAT-AT7”. For the same compound, the “induction of apoptosis” value (HUVECs; Hoechst and Annexin V-FITC/PI staining) was “no obvious effect of promoting apoptosis”, the “total apoptotic rate (Q1-UR and Q1-LR)” value (HUVECs; mean ± SD, n = 3, control (7.17 ± 1.42)%) was 8.94 ± 3.52% and the “glioma growth (bioluminescence)” value [3] was “no significant difference compared to the control group”. The “hemolysis” value (red blood cells) was “did not cause obvious hemolysis” and the hemolysis rate (red blood cells) was “lower than 5%”.
For “KKRRQRRRPPQG [HIV-1 Tat-derived peptide]”, the “disturbing the cross-linking of VEGF to NRP-1” value (shortened to “disturbing the cross-linking”) (NRP-1 [4]) is given as “displayed potency in disturbing the cross-linking of VEGF to NRP-1”.
In the case of “KRRQRRRPPQGNQAHQDPLP [HIV-1 Tat-derived peptide]”, the “disturbing the cross-linking” value (NRP-1 [4]) is listed as “displayed potency in disturbing the cross-linking of VEGF to NRP-1”.
For “SYGRKKRRQRRR [HIV-1 Tat-derived peptide]”, the “disturbing the cross-linking” value (NRP-1 [4]) is listed as “displayed potency in disturbing the cross-linking of VEGF to NRP-1”.
